Laboratory results published in patent publication US9637472B2, “Substituted 6,5-fused bicyclic heteroaryl compounds” (Epizyme, Inc., priority 2011, dated 2017).

Molecular target: EZH2 (Homo sapiens (Human), UniProt Q15910)
Test: PRC2 enzyme assay on peptide substrates
Type: biochemical
Settings: PRC2 enzyme assays on peptide substrates; 4 nM enzyme, 30 min preincubation at 25° C.; read-out: EZH2 IC50
Source text: General Materials. S-adenosylmethionine (SAM), S-adenosylhomocyteine (SAH), bicine, KCl, Tween20, dimethylsulfoxide (DMSO) and bovine skin gelatin (BSG) were purchased from Sigma-Aldrich at the highest level of purity possible. Dithiothreitol (DTT) was purchased from EMD. ^3H-SAM was purchased from American Radiolabeled Chemicals with a specific activity of 80 Ci/mmol. 384-well streptavidin Flashplates were purchased from PerkinElmer.
Substrates. […] The sequences are listed below.
Recombinant PRC2 Enzymes. Human PRC2 enzymes were purified as 4-component enzyme complexes co-expressed in Spodoptera frugiperda (sf9) cells using a baculovirus expression system. The subunits expressed were wild-type EZH2 (NM_004456) or EZH2 Y641F, N, H, S or C mutants generated from the wild-type EZH2 construct, EED (NM_003797), Suz12 (NM_015355) and RbAp48 (NM_005610). The EED subunit contained an N-terminal FLAG tag that was used to purify the entire 4-component complex from sf9 cell lysates.
General Procedure for PRC2 Enzyme Assays on Peptide Substrates. The assays were all performed in a buffer consisting of 20 mM bicine (pH=7.6), 0.5 mM DTT, 0.005% BSG and 0.002% Tween20, prepared on the day of use. […] DMSO (1 μL) was added to columns 11, 12, 23, 24, rows A-H for the maximum signal control, and SAH, a known product and inhibitor of PRC2 (1 μL) was added to columns 11, 12, 23, 24, rows I-P for the minimum signal control. A cocktail (40 μL) containing the wild-type PRC2 enzyme and H3K27me0 peptide or any of the Y641 mutant enzymes and H3K27me2 peptide was added by Multidrop Combi (Thermo). The compounds were allowed to incubate with PRC2 for 30 min at 25° C., then a cocktail (10 μL) containing a mixture of non-radioactive and ^3H-SAM was added to initiate the reaction (final volume=51 μL). […] The assays were stopped by the addition of non-radioactive SAM (10 μL) to a final concentration of 600 μM, which dilutes the ^3H-SAM to a level where its incorporation into the peptide substrate is no longer detectable. 50 μL of the reaction in the 384-well polypropylene plate was then transferred to a 384-well Flashplate and the biotinylated peptides were allowed to bind to the streptavidin surface for at least 1 h before being washed three times with 0.1% Tween20 in a Biotek ELx405 plate washer. The plates were then read in a PerkinElmer TopCount platereader to measure the quantity of ^3H-labeled peptide bound to the Flashplate surface, measured as disintegrations per minute (dpm) or alternatively, referred to as counts per minute (cpm).
Where dpm=disintegrations per minute, cmpd=signal in assay well, and min and max are the respective minimum and maximum signal controls.
Where top and bottom are the normally allowed to float, but may be fixed at 100 or 0 respectively in a 3-parameter fit. The Hill Coefficient normally allowed to float but may also be fixed at 1 in a 3-parameter fit. Y is the % inhibition and X is the compound concentration.

EZH2, sequence (Q15910 other isoform, or with tags, fused parts or gaps): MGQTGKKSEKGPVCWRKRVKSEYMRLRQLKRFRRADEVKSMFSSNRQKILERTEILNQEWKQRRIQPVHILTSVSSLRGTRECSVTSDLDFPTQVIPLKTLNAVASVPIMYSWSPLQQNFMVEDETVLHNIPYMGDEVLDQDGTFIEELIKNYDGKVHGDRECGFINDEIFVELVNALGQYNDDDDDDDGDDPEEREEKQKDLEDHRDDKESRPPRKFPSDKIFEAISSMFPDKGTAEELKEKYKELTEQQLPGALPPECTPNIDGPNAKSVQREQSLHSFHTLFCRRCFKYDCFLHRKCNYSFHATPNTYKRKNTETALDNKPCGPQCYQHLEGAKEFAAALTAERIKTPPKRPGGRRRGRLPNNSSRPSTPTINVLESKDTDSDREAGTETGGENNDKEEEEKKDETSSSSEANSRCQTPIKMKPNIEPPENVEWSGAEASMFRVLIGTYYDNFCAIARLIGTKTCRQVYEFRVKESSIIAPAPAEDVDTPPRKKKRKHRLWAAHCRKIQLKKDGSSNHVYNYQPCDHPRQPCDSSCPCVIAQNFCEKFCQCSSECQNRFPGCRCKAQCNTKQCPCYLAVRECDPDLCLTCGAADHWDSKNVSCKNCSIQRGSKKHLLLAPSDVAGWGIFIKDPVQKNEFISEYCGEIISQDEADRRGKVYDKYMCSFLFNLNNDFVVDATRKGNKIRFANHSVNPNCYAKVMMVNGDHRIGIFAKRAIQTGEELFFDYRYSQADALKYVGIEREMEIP
EZH2, sequence (O75530 whole entry partner): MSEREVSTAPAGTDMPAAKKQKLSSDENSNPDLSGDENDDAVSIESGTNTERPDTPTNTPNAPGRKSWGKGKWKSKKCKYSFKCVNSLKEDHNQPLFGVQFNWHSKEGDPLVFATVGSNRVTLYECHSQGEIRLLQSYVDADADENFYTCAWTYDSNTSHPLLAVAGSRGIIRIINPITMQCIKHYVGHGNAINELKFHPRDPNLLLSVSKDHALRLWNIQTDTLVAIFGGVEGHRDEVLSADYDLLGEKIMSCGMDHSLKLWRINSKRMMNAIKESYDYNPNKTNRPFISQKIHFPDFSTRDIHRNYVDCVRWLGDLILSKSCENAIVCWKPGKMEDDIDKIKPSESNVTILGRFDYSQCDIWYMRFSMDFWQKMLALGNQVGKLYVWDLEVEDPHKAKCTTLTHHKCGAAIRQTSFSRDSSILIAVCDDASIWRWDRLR
EZH2, sequence (Q15022 whole entry partner): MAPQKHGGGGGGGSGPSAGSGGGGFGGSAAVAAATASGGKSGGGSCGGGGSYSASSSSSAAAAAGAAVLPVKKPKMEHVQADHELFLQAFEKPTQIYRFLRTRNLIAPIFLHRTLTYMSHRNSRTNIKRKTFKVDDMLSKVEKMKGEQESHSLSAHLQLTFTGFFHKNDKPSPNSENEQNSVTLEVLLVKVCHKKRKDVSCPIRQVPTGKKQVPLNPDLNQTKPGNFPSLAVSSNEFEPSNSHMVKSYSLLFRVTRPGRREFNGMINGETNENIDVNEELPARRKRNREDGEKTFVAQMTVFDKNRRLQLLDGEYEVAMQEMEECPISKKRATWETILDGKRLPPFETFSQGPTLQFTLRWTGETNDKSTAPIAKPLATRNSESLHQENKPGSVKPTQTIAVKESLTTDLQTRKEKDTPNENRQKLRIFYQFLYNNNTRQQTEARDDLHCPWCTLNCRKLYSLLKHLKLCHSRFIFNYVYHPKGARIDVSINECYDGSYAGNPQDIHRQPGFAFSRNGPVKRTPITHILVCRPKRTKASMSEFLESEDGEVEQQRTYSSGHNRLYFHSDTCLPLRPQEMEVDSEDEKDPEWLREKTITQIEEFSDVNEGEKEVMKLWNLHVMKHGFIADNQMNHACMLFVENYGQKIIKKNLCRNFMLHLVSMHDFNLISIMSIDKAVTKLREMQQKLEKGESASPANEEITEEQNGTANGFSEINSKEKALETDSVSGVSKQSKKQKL
EZH2, sequence (Q09028 whole entry partner): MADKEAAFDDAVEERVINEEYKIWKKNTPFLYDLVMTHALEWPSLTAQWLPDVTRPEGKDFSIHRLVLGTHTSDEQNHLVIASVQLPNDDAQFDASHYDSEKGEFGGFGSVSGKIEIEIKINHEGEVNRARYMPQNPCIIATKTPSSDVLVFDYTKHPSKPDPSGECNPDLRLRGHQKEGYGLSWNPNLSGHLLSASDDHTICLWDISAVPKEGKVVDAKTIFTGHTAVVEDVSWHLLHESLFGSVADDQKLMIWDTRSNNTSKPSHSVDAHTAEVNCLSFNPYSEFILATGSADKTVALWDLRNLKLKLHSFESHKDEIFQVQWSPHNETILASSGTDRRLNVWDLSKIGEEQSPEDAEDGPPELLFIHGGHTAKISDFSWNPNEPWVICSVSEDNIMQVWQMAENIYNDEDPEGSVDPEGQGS

| Compound | IC50 |
| --- | --- |
| 1-cyclopentyl-N-((4,6-dimethyl-2-oxo-1,2-dihydropyridin-3-yl)methyl)-6-(2,2,6,6-tetramethylpiperidin-4-yl)-1H-pyrazolo[3,4-b]pyridine-4-carboxamide [Compound B-4] | < 0.3 µM |
| Cc1cc(C)c(CNC(=O)c2cc(-c3ccc(N4CCN(C(=O)OC(C)(C)C)CC4)nc3)nc3c2cnn3C(C)C)c(=O)[nH]1 [Compound A-44] | 0.3 to 1 µM |
| Cc1cc(C)c(CNC(=O)c2cc(C3=CCOCC3)nc3c2cnn3C(C)C)c(=O)[nH]1 [Compound B-80] | 0.3 to 1 µM |
| Cc1cc(CN2CCCC2)c(CNC(=O)c2cccc3c2cnn3C2CCCC2)c(=O)[nH]1 [Compound D-82] | 3 to 10 µM |
| CC(=O)N1CCC(n2ncc3c(C(=O)NCc4c(C)cc(C)[nH]c4=O)cc(Br)cc32)CC1 [Compound D-59] | 0.3 to 1 µM |
| Cc1cc(CN2CCN(C)CC2)c(CNC(=O)c2cc(Br)cc3c2cnn3C2CCCC2)c(=O)[nH]1 [Compound D-63] | 0.3 to 1 µM |
| Cc1cc(COCCCN(C)C)c(CNC(=O)c2cc(Br)cc3c2cnn3C2CCCC2)c(=O)[nH]1 [Compound D-90] | 10 to 50 µM |
| Cc1cc(C)c(CNC(=O)c2cc(CO)cc3c2cnn3C2CCCC2)c(=O)[nH]1 [Compound D-8, 1-cyclopentyl-N-((4,6-dimethyl-2-oxo-1,2-dihydropyridin-3-yl)methyl)-6-(hydroxymethyl)-1H-indazole-4-carboxamide] | 0.3 to 1 µM |
| Cc1cc(C)c(CNC(=O)c2cc(-c3cnc(N)nc3)cc3c2cnn3C2CCCC2)c(=O)[nH]1 [Compound C-30] | < 0.3 µM |
| CNCCN(C)Cc1cccc(-c2cc(C(=O)NCc3c(C)cc(C)[nH]c3=O)c3c(n2)N(C(C)C)NC3)c1 [Compound A-58] | 1 to 3 µM |
| Cc1cc(C)c(CNC(=O)c2cc(Br)cc3c2cnn3C2CN(C(=O)OC(C)(C)C)C2)c(=O)[nH]1 [Compound D-34] | 1 to 3 µM |
| CNCC(=O)N1CCC(c2cc(C(=O)NCc3c(C)cc(C)[nH]c3=O)c3cnn(C(C)C)c3n2)CC1 [Compound B-76] | 0.3 to 1 µM |
| Cc1cc(C)c(CNC(=O)c2cc(CO)nc3c2cnn3C(C)C)c(=O)[nH]1 [Compound B-113] | 1 to 3 µM |
| COC(=O)/C=C/Cn1ncc2c(C(=O)NCc3c(C)cc(C)[nH]c3=O)cc(C3=CC(C)(C)NC(C)(C)C3)nc21 [Compound B-124] | 3 to 10 µM |
| Cc1cc(CN(C)C)c(CNC(=O)c2cc(Br)cc3c2cnn3C2CCCC2)c(=O)[nH]1 [Compound D-17, 6-bromo-1-cyclopentyl-N-((4-((dimethylamino)methyl)-6-methyl-2-oxo-1,2-dihydropyridin-3-yl)methyl)-1H-indazole-4-carboxamide] | < 0.3 µM |
| Cc1cc(C)c(CNC(=O)c2cc(C3CCN(CCCN(C)C)CC3)cc3c2cnn3C2CCCC2)c(=O)[nH]1 [Compound D-30] | < 0.3 µM |
| Cc1cc(C)c(CNC(=O)c2cc(C=O)cc3c2cnn3C2CCCC2)c(=O)[nH]1 [Compound D-43] | < 0.3 µM |
| Cc1cc(C)c(CNC(=O)c2cc(CN(C)CCCN(C)C)cc3c2cnn3C2CCCC2)c(=O)[nH]1 [Compound D-67] | 0.3 to 1 µM |
| Cc1cc(C)c(CNC(=O)c2cc(N(C)CCCN(C)C)nc3c2cnn3C(C)C)c(=O)[nH]1 [Compound B-91] | 1 to 3 µM |
| Cc1cc(C)c(CNC(=O)c2cc(N(C)C)nc3c2cnn3C(C)C)c(=O)[nH]1 [Compound B-136] | 3 to 10 µM |
| Cc1cc(C)c(CNC(=O)c2cc(C(=O)N3CCC(N4CCN(C)CC4)CC3)nc3c2cnn3C(C)C)c(=O)[nH]1 [Compound B-128] | 3 to 10 µM |
| Cc1cc(C)c(CNC(=O)c2cc(C3CCN(C(=O)CN)CC3)nc3c2cnn3C(C)C)c(=O)[nH]1 [Compound B-79] | 0.3 to 1 µM |
| Cc1cc(C)c(CNC(=O)c2cc(-c3cccc(CO)c3)cc3c2cnn3C2CCCC2)c(=O)[nH]1 [Compound C-8, 1-cyclopentyl-N-((4,6-dimethyl-2-oxo-1,2-dihydropyridine-3-yl)methyl)-6-(3-(hydroxymethyl)phenyl)-1H-indazole-4-carboxamide] | 0.3 to 1 µM |
| Cc1cc(C)c(CNC(=O)c2cc(C3=CCN(S(C)(=O)=O)CC3)nc3c2cnn3C(C)C)c(=O)[nH]1 [Compound B-99] | 1 to 3 µM |

| Compound | IC50 |
| --- | --- |
| Cc1cc(C)c(CNC(=O)c2cc(NCCS(C)(=O)=O)nc3c2cnn3C(C)C)c(=O)[nH]1 [Compound B-114] | 1 to 3 µM |
| Cc1cc(C)c(CNC(=O)c2cc(-c3cccc(COCCN)c3)cc3c2cnn3C2CCCC2)c(=O)[nH]1 [Compound C-23] | < 0.3 µM |
| CCc1cc(C(=O)NCc2c(C)cc(C)[nH]c2=O)c2cnn(C3CCCC3)c2c1 [Compound D-60] | 0.3 to 1 µM |
| Cc1cc(C)c(CNC(=O)c2cc(N3CCC(O)C3)nc3c2cnn3C(C)C)c(=O)[nH]1 (centres unmarked) [Compound B-119] | 1 to 3 µM |
| Cc1cc(C)c(CN(C)C(=O)c2cc(-c3cccc(CN4CCN(C)CC4)c3)nc3c2cnn3C(C)C)c(=O)[nH]1 [Compound A-73] | 10 to 50 µM |
| Cc1cc(C)c(CNC(=O)c2cc(C3=CC(C)(C)NC(C)(C)C3)nc3c2cnn3C(C)C)c(=O)[nH]1 [Compound B-36] | 0.3 to 1 µM |
| C=C(C)c1nn(C(C)C)c2nc(-c3ccc(CN4CCOCC4)cc3)cc(C(=O)NCc3c(C)cc(C)[nH]c3=O)c12 [Compound A-94] | 3 to 10 µM |
| Cc1cc(C)c(CNC(=O)c2cc(C(=O)N3CCN(C)CC3)nc3c2cnn3C(C)C)c(=O)[nH]1 [Compound B-138] | 3 to 10 µM |
| Cc1cc(C)c(CNC(=O)c2cc(-c3ccnc(N4CCN(C(=O)OC(C)(C)C)CC4)c3)nc3c2cnn3C(C)C)c(=O)[nH]1 [Compound A-27] | 0.3 to 1 µM |
| CC1=CC(C)=C(CNC(=O)c2cc(-c3cccc(CNCCCN(C)C)c3)nc3c2cnn3C(C)C)C(C)N1 (centres unmarked) [Compound A-125] | 1 to 3 µM |
| Cc1cc(CN2CCC[C@@H]2C(N)=O)c(CNC(=O)c2cc(Br)cc3c2cnn3C2CCCC2)c(=O)[nH]1 [Compound D-22] | 1 to 3 µM |
| Cc1cc(C)c(CNC(=O)c2cc(Br)cc3c2cnn3C2CCN(C(=O)OC(C)(C)C)CC2)c(=O)[nH]1 [Compound D-12, tert-butyl 4-(6-bromo-4-(((4,6-dimethyl-2-oxo-1,2-dihydropyridin-3-yl)methyl)carbamoyl)-1H-indazol-1-yl)piperidine-1-carboxylate] | < 0.3 µM |
| Cc1cc(C)c(CNC(=O)c2cc(C3=CCN(C(=O)CCN)CC3)nc3c2cnn3C(C)C)c(=O)[nH]1 [Compound B-49] | 0.3 to 1 µM |
| Cc1cc(C)c(CNC(=O)c2cc(C(=O)N(C)C)nc3c2cnn3C(C)C)c(=O)[nH]1 [Compound B-141] | 3 to 10 µM |
| CNCCCOc1cccc(-c2cc(C(=O)NCc3c(C)cc(C)[nH]c3=O)c3cnn(C4CCCC4)c3c2)c1 [Compound C-10, 1-cyclopentyl-N-((4,6-dimethyl-2-oxo-1,2-dihydropyridin-3-yl)methyl)-6-(3-(3-(methylamino)propoxy)phenyl)-1H-indazole-4-carboxamide] | < 0.3 µM |
| Cc1cc(CN2CCNC(=O)C2)c(CNC(=O)c2cc(Br)cc3c2cnn3C2CCCC2)c(=O)[nH]1 [Compound D-69] | 1 to 3 µM |
| Cc1cc(C)c(CNC(=O)c2cc(C3=CCN(C(=O)CN)CC3)nc3c2cnn3C(C)C)c(=O)[nH]1 [Compound B-63] | 0.3 to 1 µM |
| Cc1cc(C)c(CNC(=O)c2cc(N3CCOCC3)nc3c2cnn3C(C)C)c(=O)[nH]1 [Compound B-98] | 1 to 3 µM |
| Cc1cc(C)c(CNC(=O)c2cc(-c3ccc(N4CCN(C(=O)OC(C)(C)C)CC4)cc3)nc3c2cnn3C(C)C)c(=O)[nH]1 [Compound A-51] | 1 to 3 µM |
| C=Cc1cc(C(=O)NCc2c(C)cc(C)[nH]c2=O)c2cnn(C(C)C)c2n1 [Compound B-97] | 1 to 3 µM |
| CCOc1cc(C(=O)NCc2c(C)cc(C)[nH]c2=O)c2cnn(C(C)C)c2n1 [Compound B-112] | 1 to 3 µM |
| Cc1cc(CN(C)CCN(C)C)c(CNC(=O)c2cccc3c2cnn3C2CCCC2)c(=O)[nH]1 [Compound D-75] | 1 to 3 µM |
| Cc1cc(C)c(CNC(=O)c2cc(C3=CC(C)(C)NC(C)(C)C3)nc3c2cnn3C2COC2)c(=O)[nH]1 [Compound B-15, N-((4,6-dimethyl-2-oxo-1,2-dihydropyridin-3-yl)methyl)-1-(oxetan-3-yl)-6-(2,2,6,6-tetramethyl-1,2,3,6-tetrahydropyridin-4-yl)-1H-pyrazolo[3,4-b]pyridine-4-carboxamide] | 0.3 to 1 µM |
